Key:
Test in all cases: Effect on weeds by the post-emergence technique
Format in all cases: in vivo
Conditions in all cases: rated visually after approx. 3-4 weeks
[1] = test system: Echinochloa crusgalli barnyardgrass
Method: (§1) The damage caused to weed plants or the toleration by crop plants was rated by means of a code in which the activity is expressed by valuation numbers from 0 to 5. These have the following meanings:
(§2) Seeds or pieces of rhizome of monocotyledonous and dicotyledonous weeds were laid out in sandy loam soil in plastic pots (.phi.=9 l cm), covered with soil and cultivated in a greenhouse under good conditions for growth. The test plants were treated in the three leaf stage three weeks after sowing.
(§3) The compounds according to the invention, formulated as wettable powders, as emulsion concentrates or as aqueous solutions, were sprayed onto the green parts of the plants at various dosages and at a water application rate equivalent to 600 l/hectare, and the effect of the preparations was rated visually in comparison with untreated controls after the test plants had stood for approx. 3-4 weeks in a greenhouse under optimum conditions for growth (temperature 23 plus/minus 1° C.; relative humidity 60-80%). The agents according to the invention display a good herbicidal activity in the post-emergence technique against a broad spectrum of grass-like weeds and weeds of economic importance.

[2] = test system: Stellaria media (starwort)
Method: as §1, §2, §3

[3] = test system: Setaria lutescens foxtail
Method: as §1, §2, §3

[4] = test system: Chrysanthemum segetum corn marigold
Method: as §1, §2, §3

[5] = test system: Sinapis alba (white mustard)
Method: as §1, §2, §3

[6] = test system: Avena fatua (wild oats)
Method: as §1, §2, §3

| Compound | Herbicidal effect ECG ([1]; 0.6 kg of a.i./hectare) | Herbicidal effect ECG ([1]; 2.4 kg of a.i./hectare) | Herbicidal effect STM ([2]; 0.6 kg of a.i./hectare) | Herbicidal effect STM ([2]; 2.4 kg of a.i./hectare) | Herbicidal effect SAL ([3]; 0.6 kg of a.i./hectare) | Herbicidal effect SAL ([3]; 2.4 kg of a.i./hectare) | Herbicidal effect CRS ([4]; 0.6 kg of a.i./hectare) | Herbicidal effect CRS ([4]; 2.4 kg of a.i./hectare) | Herbicidal effect SIA ([5]; 0.6 kg of a.i./hectare) | Herbicidal effect SIA ([5]; 2.4 kg of a.i./hectare) | Herbicidal effect AVF ([6]; 0.6 kg of a.i./hectare) | Herbicidal effect AVF ([6]; 2.4 kg of a.i./hectare) |
| --- | --- | --- | --- | --- | --- | --- | --- | --- | --- | --- | --- | --- |
| CC(C)C(N)C(=O)NC(CCP(C)(=O)O)C(=O)O (racemic) [Example 1, N-Dl-valyl-DL-phosphinothricin] | 5 (5=80-100% effect or damage) | 5 (5=80-100% effect or damage) | 4 (4=60-80% effect or damage) | 5 (5=80-100% effect or damage) | 4 (4=60-80% effect or damage) | 5 (5=80-100% effect or damage) | 5 (5=80-100% effect or damage) | 5 (5=80-100% effect or damage) | 5 (5=80-100% effect or damage) | 5 (5=80-100% effect or damage) | 4 (4=60-80% effect or damage) | 5 (5=80-100% effect or damage) |
| CP(=O)(O)CCC(NC(=O)[C@@H](N)Cc1ccccc1)C(=O)O (mixture of isomers) [Example 2, N-L-phenylalanyl-DL-phosphinothricin] | 5 (5=80-100% effect or damage) | 5 (5=80-100% effect or damage) | 4 (4=60-80% effect or damage) | 5 (5=80-100% effect or damage) | 5 (5=80-100% effect or damage) | 5 (5=80-100% effect or damage) | 5 (5=80-100% effect or damage) | 5 (5=80-100% effect or damage) | 5 (5=80-100% effect or damage) | 5 (5=80-100% effect or damage) | 5 (5=80-100% effect or damage) | 5 (5=80-100% effect or damage) |
| CC(C)C[C@H](N)C(=O)NC(CCP(C)(=O)O)C(=O)O (some centres unmarked) [Example 24] | – | 5 (5=80-100% effect or damage) | – | 5 (5=80-100% effect or damage) | – | – | – | 5 (5=80-100% effect or damage) | – | 5 (5=80-100% effect or damage) | – | – |
| CP(=O)(O)CCC(NC(=O)C(N)c1ccccc1)C(=O)O (centres unmarked) [Example 34] | 5 (5=80-100% effect or damage) | 5 (5=80-100% effect or damage) | 4 (4=60-80% effect or damage) | 5 (5=80-100% effect or damage) | 4 (4=60-80% effect or damage) | 5 (5=80-100% effect or damage) | 5 (5=80-100% effect or damage) | 5 (5=80-100% effect or damage) | 5 (5=80-100% effect or damage) | 5 (5=80-100% effect or damage) | 3 (3=40-60% effect or damage) | 4 (4=60-80% effect or damage) |
| CP(=O)(O)CCC(NC(=O)[C@@H](N)CCCCN)C(=O)O (some centres unmarked) [Example 72] | – | 5 (5=80-100% effect or damage) | – | 5 (5=80-100% effect or damage) | – | – | – | 5 (5=80-100% effect or damage) | – | 5 (5=80-100% effect or damage) | – | – |
